The subject of data set [1] is p53 reporter system in p53 wild-type A549 cell line. Put plainly: p53-dependent transcription reporter assay, A549RE. The data set is classed as cell-based. The conditions noted are these: p53 +ve cell type; maximal fold induction over DMSO control. As for the experimental part:
(§1) Stable lines of U2OS (osteosarcoma; Wild-type p53 positive), HCT116 (colorectal carcinoma; Wild-type p53 positive) and H1299 (lung non-small cell carcinoma; p53 null) carrying p53-dependent transcriptional regulatory element linked to a Luciferase reporter gene and H1299 carrying a 5′-regulatory region of GADD45 linked to Luciferase were used.
(§2) Day 2: The compounds or control drugs were diluted in dimethyl sulfoxide (DMSO) and added to the wells to create 6-points/2-fold serial dilution (20, 10, 5, 2.5, 1.25, 0.625 and 0 μM) for each compound. The DMSO concentration was adjusted to 0.2% in all wells.
(§3) Day 3: Twenty to 24 hours after compound addition, cells were twice washed with PBS and lysed with Glo-lysis buffer (100 μl/well, Promega; Cat#E2661). Plates were subjected to gentle agitation on a table-top shaker for 5 minutes at room temperature. Fifty μl of lysate was transferred to an assay plate to test for luciferase activity and mixed with 2× assay buffer (Promega; Cat# E1483). The reaction mixture was left at room temperature for 2 minutes and then luminescence was measure by a luminometer (Victor™, 1420 Multilabel Counter, Wallac).
(§4) Data analysis was done on Excel software (Microsoft). Values in Table 4 represent maximal fold induction over negative control (DMSO only) and are the mean of at least duplicate experiments.
A549RE is a p53 wild-type A549 cell line containing p53 reporter system. If the compound acts against MDM2, p53 activity increases.

The subject of data set [2] is p53 reporter system in p53 wild-type U2OS cell line. Put plainly: p53-dependent transcription reporter assay, U20SRE. The data set is classed as cell-based. To be noted: p53 +ve cell type; maximal fold induction over DMSO control.
Source text: as §1
Day 1: Cells were re-plated into 96-well plates at suitable densities to make 50-60% confluence on Day 2. The plating densities are as follows: 7.5×10^3 cells/well (or 2.5×10^4 cells/cm^2) for U2OS; 1.5×10^4 cells/well (or 5.0×10^4 cells/cm^2) for HCT116; and 1.0×10^4 cells/well (or 3.3×10^4 cells/cm^2) for H1299.
as §2, §3, §4
U20SRE is a p53 wild-type U2OS cell line containing p53 reporter system. If the compound acts against MDM2, p53 activity increases.

The target of the next data set is MDM2 (Homo sapiens, UniProt Q00987). Put plainly: Plate-based E3 ligase assay, MDM2 autoubiquitination (MDM2-FLAG). In kind it is biochemical. To be noted: Table 2; read-out: MDM2 IC50. Here is the method:
(§5) E3 (His-APC11/APC2—“APC”) auto-ubiquitination was measured as described in U.S. patent application Ser. No. 09/826,312 (Publication No. US-2002-0042083-A1), which is incorporated herein in its entirety. Details of the protocol are described below. Activity in the presence of the compound was determined relative to a parallel control in which only DMSO was added. Values of the IC50 were typically determined using 6 or 8 different concentrations of the compound, although as few as 2 concentrations may be used to approximate the IC50 value.
(§6) Nickel-coated 96-well plates (Pierce 15242) were blocked for 1 hour with 100 μl of blocking buffer at room temperature. The plates were washed 4 times with 225 μl of 1×PBS and 80 μl of the reaction buffer were added that contained 100 ng/well of Flag-ubiquitin. To this, 10 μl of the test compound diluted in DMSO were added. After the test compound was added, 10 μl of E1 (human), E2 (Ubch5c), and APC in Protein Buffer was added to obtain a final concentration of 5 ng/well of E1, 20 ng/well: of E2 and 100 ng/well of APC. The plate were shaken for 10 minutes and incubated at room temperature for 1 hour. After incubation, the plates were washed 4 times with 225 μl of 1×PBS and 100 μl/well of Antibody Mix were added to each well. The plates were incubate at room temperature for another hour after which they were washed 4 times with 225 μl of 1×PBS and 100 μl/well of Lumino substrate were added to each well. The luminescence was measured by using a BMG luminescence microplate reader.
In similar manner, autoubiquitination of the E3 MDM2 was determined (MDM2-FLAG). Further instruction in such assays can be found in U.S. patent application Ser. No. 10/108,767 (Publication No. US-2003-0104474 A1), which is incorporated herein in its entirety.
hMDM2 Plate/Gel is Mouse double minute 2, human homolog. This protein belongs to the E3 RING finger ligase group.

The target of data set [3] is E3 (His-APC11/APC2, "APC") (Homo sapiens, UniProt Q9NYG5+Q9UJX6). Nature of the data set: Plate-based E3 ligase assay (APC FLAG), auto-ubiquitination. The data set is classed as biochemical. To be noted: Table 2; read-out: APC IC50. As for the experimental part:
as §5, §6
APC Plate/gel is Anaphase Promoting Complex. This protein also belongs to E3 RING finger ligase group.

pIC50: −log10 of the molar value.

E3 (His-APC11/APC2, "APC"), sequence (Q9NYG5 whole entry): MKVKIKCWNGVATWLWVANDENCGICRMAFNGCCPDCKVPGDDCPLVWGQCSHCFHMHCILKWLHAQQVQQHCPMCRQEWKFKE
E3 (His-APC11/APC2, "APC"), sequence (Q9UJX6 whole entry): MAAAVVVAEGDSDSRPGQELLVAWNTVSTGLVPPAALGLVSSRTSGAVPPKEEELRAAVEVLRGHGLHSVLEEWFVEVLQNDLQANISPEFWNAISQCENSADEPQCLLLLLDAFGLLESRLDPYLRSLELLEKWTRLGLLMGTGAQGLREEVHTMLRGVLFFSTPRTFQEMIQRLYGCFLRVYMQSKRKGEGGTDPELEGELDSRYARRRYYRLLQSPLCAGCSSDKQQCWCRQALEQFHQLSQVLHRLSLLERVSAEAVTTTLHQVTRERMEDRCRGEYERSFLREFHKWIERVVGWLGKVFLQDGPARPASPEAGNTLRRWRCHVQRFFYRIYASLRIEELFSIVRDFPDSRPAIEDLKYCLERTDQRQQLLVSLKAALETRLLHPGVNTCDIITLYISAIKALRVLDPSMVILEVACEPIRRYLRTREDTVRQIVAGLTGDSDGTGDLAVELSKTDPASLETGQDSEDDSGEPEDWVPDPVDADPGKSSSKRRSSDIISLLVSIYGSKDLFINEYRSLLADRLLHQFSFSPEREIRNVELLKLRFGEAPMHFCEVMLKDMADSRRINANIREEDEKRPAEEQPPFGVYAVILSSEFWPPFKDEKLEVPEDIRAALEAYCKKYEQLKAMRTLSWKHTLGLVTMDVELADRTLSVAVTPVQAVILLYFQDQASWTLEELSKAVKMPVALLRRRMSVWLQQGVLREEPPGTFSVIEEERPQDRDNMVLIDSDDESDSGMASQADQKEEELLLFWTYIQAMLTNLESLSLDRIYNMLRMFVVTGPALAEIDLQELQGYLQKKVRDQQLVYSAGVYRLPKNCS
MDM2, sequence (Q00987 whole entry): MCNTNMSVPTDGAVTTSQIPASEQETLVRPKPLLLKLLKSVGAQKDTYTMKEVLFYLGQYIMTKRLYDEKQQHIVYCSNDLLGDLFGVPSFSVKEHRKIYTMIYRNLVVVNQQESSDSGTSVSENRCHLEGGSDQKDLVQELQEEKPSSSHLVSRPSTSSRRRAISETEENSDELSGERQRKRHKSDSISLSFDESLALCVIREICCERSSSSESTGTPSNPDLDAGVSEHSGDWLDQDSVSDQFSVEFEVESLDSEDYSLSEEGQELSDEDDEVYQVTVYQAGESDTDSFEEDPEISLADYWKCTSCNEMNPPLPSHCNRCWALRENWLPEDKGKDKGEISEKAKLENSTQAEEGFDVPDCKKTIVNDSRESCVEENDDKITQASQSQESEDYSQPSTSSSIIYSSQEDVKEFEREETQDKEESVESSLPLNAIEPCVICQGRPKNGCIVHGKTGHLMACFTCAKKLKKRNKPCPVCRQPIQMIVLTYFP

Take `CC(C)N(CCN(Cc1ccc(C(=O)N2CCNCC2)cc1)c1nc(-c2cccc([N+](=O)[O-])c2)cs1)C(C)C` [compound 233]: the “Fold Induction of p53 activity, A549RE” value in data set [1] is given as “a (a means 2 or less)”. In data set [2], the “Fold Induction of p53 activity, U20SRE” value is reported as “a (a means 2 or less)”. Moreover, the pIC50 (on MDM2; in data set [3]) was at most 4.70 in each case.

The record behind these values is US20060160869A1, “Ubiquitin ligase inhibitors” (Rigel Pharmaceuticals, Inc., priority 2005, published 2006).
